Assay results from the supplement of paper PMC10307832.

What was measured:
Assay in all cases: relative viability (nuclei count vs DMSO), 5 days (fraction); higher = more cells survive
Darinaparsin = compound: C[As](C)SC[C@H](NC(=O)CC[C@H](N)C(=O)O)C(=O)NCC(=O)O [Darinaparsin]
Procedure, shortened: (§1)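 Nuclei counted with MetaXpress define viability as the ratio of treated to vehicle wells, given as a median across plates. The lung cancer cell lines were in 1536-well plates, pinned with five √10-spaced library-drug doses and imaged at 4× after 5 days and Hoechst staining. Plates passed with control CV below 25% and at least one doubling.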

AZ628 = compound: CC1=C(C=C(C=C1)NC(=O)C2=CC(=CC=C2)C(C)(C)C#N)NC3=CC4=C(C=C3)N=CN(C4=O)C [AZ628]
Procedure, shortened: as §1

QS11 = compound: C1CC2=C(C1)C=C(C=C2)OC3=NC(=C4C(=N3)N(C=N4)CC5=CC=C(C=C5)C6=CC=CC=C6)N[C@@H](CC7=CC=CC=C7)CO [QS11]
Procedure, shortened: as §1

| Cell Line | relative viability (Darinaparsin; 0.08 µM) | relative viability (Darinaparsin; 0.8 µM) | relative viability (Darinaparsin; 2.53 µM) | relative viability (Darinaparsin; 8 µM) | relative viability (AZ628; 0.08 µM) | relative viability (AZ628; 0.253 µM) | relative viability (AZ628; 0.8 µM) | relative viability (AZ628; 2.53 µM) | relative viability (AZ628; 8 µM) | relative viability (QS11; 0.08 µM) | relative viability (QS11; 0.253 µM) | relative viability (QS11; 0.8 µM) | relative viability (QS11; 2.53 µM) | relative viability (QS11; 8 µM) |
| --- | --- | --- | --- | --- | --- | --- | --- | --- | --- | --- | --- | --- | --- | --- |
| NCI-H1563 | 1.05 | 0.948 | 0.996 | 1.04 | 0.997 | 0.925 | 0.991 | 0.952 | 1.05 | 0.951 | 1.02 | 0.965 | 1.12 | 0.971 |
| SW 900 | 0.965 | 0.669 | 0.994 | 0.942 | 1.13 | 0.865 | 1.14 | 0.803 | 0.889 | 0.705 | 0.688 | 0.809 | 0.663 | 0.521 |
| HCC-827 | 1.09 | 1.02 | 1.07 | 1.16 | 1.03 | 1.01 | 1.03 | 1.07 | 0.839 | 1 | 1.13 | 0.813 | 1.02 | 0.931 |
| NCI-H1666 | 1.04 | 0.948 | 1.24 | 1.05 | 0.965 | 0.826 | 0.885 | 0.813 | 0.901 | 0.935 | 0.984 | 0.776 | 0.793 | 0.667 |
| NCI-H322M | 1.02 | 0.951 | 0.767 | 1.03 | 1.1 | 0.952 | 0.986 | 0.95 | 0.788 | 0.923 | 0.904 | 0.998 | 1.15 | 1.41 |
| NCI-H838 | 0.997 | 0.931 | 0.991 | 1.14 | 1.02 | 0.992 | 0.951 | 0.932 | 0.868 | 0.99 | 0.915 | 0.784 | 0.908 | 0.872 |
| NCI-H2228 | 1.39 | 1.18 | 0.915 | 1.35 | 0.994 | 1.16 | 0.968 | 1.02 | 0.84 | 0.902 | 1.01 | 0.97 | 1.09 | 1.32 |
| NCI-H596 | 0.937 | 1.05 | 0.938 | 1.05 | 1.05 | 1.03 | 1.1 | 1.06 | 1.01 | 0.931 | 0.833 | 1.15 | 0.969 | 1.09 |
| NCI-H647 | 1.08 | 0.962 | 0.896 | 1.26 | 1.01 | 0.962 | 0.798 | 0.936 | 0.732 | 0.979 | 0.856 | 0.917 | 0.956 | 0.769 |
| NCI-H441 | 1.49 | 1.14 | 0.991 | 1.26 | 0.932 | 1.02 | 0.988 | 1.06 | 0.787 | 0.978 | 1.04 | 0.92 | 0.985 | 0.855 |
